In patent publication US12077503B2, “Substituted cyclic amides and their use as herbicides” (FMC CORPORATION, priority 2015, dated 2024):

Tests used:
Format in all cases: in vivo
[1] = test system: corn (Zea mays); experiment: Test G Post-Emergence Protocol; conditions: Zea mays, post-emergence, 312 h, read-out: Corn damage rating; for plant injury at 15.625 g/ha: 15.625 g ai/ha, evaluated after 13 days (100=total damage to plant; 0=no damage to plant); for plant injury at 62.5 g/ha: 62.5 g ai/ha; for plant injury at 62.5 g/ha / plant injury at 250 g/ha: evaluated after 13 days, 100=total damage to plant, 0=no damage to plant; for plant injury at 250 g/ha: 250 g ai/ha
In short: (§1)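 Sow in soil; grow 8 d (24/16 °C, 14 h light, 65% humidity); spray 15.625/62.5/250 g/ha in acetone:water 50:50 + 0.5% Tween 20; grow on, water twice daily; score damage 0–100 at 13 d.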

[2] = test system: barnyardgrass (Echinochloa crus-galli); experiment: Test G Post-Emergence Protocol; conditions: Echinochloa crus-galli, post-emergence, 312 h, read-out: Barnyardgrass damage rating; for pest or weed control at 15.625 g/ha: 15.625 g ai/ha, evaluated after 13 days (100=total damage to plant; 0=no damage to plant); for pest or weed control at 62.5 g/ha: 62.5 g ai/ha; for pest or weed control at 62.5 g/ha / pest or weed control at 250 g/ha: evaluated after 13 days, 100=total damage to plant, 0=no damage to plant; for pest or weed control at 250 g/ha: 250 g ai/ha
In short: as §1

[3] = test system: velvetleaf (Abutilon theophrasti); experiment: Test G Post-Emergence Protocol; conditions: Abutilon theophrasti, post-emergence, 312 h, read-out: Velvetleaf damage rating; for pest or weed control at 15.625 g/ha: 15.625 g ai/ha, evaluated after 13 days (100=total damage to plant; 0=no damage to plant); for pest or weed control at 62.5 g/ha: 62.5 g ai/ha; for pest or weed control at 62.5 g/ha / pest or weed control at 250 g/ha: evaluated after 13 days, 100=total damage to plant, 0=no damage to plant; for pest or weed control at 250 g/ha: 250 g ai/ha
In short: as §1

[4] = test system: redroot pigweed (Amaranthus retroflexus); experiment: Test G Post-Emergence Protocol; conditions: Amaranthus retroflexus, post-emergence, 312 h, read-out: Pigweed, Redroot damage rating; for pest or weed control at 15.625 g/ha: 15.625 g ai/ha, evaluated after 13 days (100=total damage to plant; 0=no damage to plant); for pest or weed control at 62.5 g/ha: 62.5 g ai/ha; for pest or weed control at 62.5 g/ha / pest or weed control at 250 g/ha: evaluated after 13 days, 100=total damage to plant, 0=no damage to plant; for pest or weed control at 250 g/ha: 250 g ai/ha
In short: as §1

[5] = test system: giant foxtail (Setaria faberi); experiment: Test G Post-Emergence Protocol; conditions: Setaria faberi, post-emergence, 312 h, read-out: Foxtail, Giant damage rating; for pest or weed control at 15.625 g/ha: 15.625 g ai/ha, evaluated after 13 days (100=total damage to plant; 0=no damage to plant); for pest or weed control at 62.5 g/ha: 62.5 g ai/ha
In short: as §1

[6] = test system: ivy-leaved morning glory (Ipomoea hederacea); experiment: Test G Post-Emergence Protocol; conditions: Ipomoea, post-emergence, 312 h, read-out: Morningglory, Ivy-leaved damage rating; for pest or weed control at 15.625 g/ha: 15.625 g ai/ha, evaluated after 13 days (100=total damage to plant; 0=no damage to plant); for pest or weed control at 62.5 g/ha: 62.5 g ai/ha; for pest or weed control at 62.5 g/ha / pest or weed control at 250 g/ha: evaluated after 13 days, 100=total damage to plant, 0=no damage to plant; for pest or weed control at 250 g/ha: 250 g ai/ha
In short: as §1

[7] = test system: corn (Zea mays); experiment: Test G Pre-Emergence Protocol; conditions: Zea mays, pre-emergence, 312 h, evaluated after 13 days; for plant injury at 15.625 g/ha: 15.625 g ai/ha; for plant injury at 15.625 g/ha / plant injury at 250 g/ha: read-out: Corn damage rating (100=total damage to plant; 0=no damage to plant); for plant injury at 62.5 g/ha: 62.5 g ai/ha, 100=total damage to plant, 0=no damage to plant, read-out: Corn damage rating; for plant injury at 250 g/ha: 250 g ai/ha
In short: (§2)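 Pre-emergence spray, 15.625/62.5/250 g/ha, vehicle acetone:water 50:50 + 0.5% Tween 20, applied 1 d after sowing. Glasshouse 24/16° C, 14 h light, 65% RH, watered twice daily. Visual damage rating at 13 d, 0–100 scale.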

[8] = test system: barnyardgrass (Echinochloa crus-galli); experiment: Test G Pre-Emergence Protocol; conditions: Echinochloa crus-galli, pre-emergence, 312 h, evaluated after 13 days; for pest or weed control at 15.625 g/ha: 15.625 g ai/ha; for pest or weed control at 15.625 g/ha / pest or weed control at 250 g/ha: read-out: Barnyardgrass damage rating (100=total damage to plant; 0=no damage to plant); for pest or weed control at 62.5 g/ha: 62.5 g ai/ha, 100=total damage to plant, 0=no damage to plant, read-out: Barnyardgrass damage rating; for pest or weed control at 250 g/ha: 250 g ai/ha
In short: as §2

[9] = test system: velvetleaf (Abutilon theophrasti); experiment: Test G Pre-Emergence Protocol; conditions: Abutilon theophrasti, pre-emergence, 312 h, evaluated after 13 days; for pest or weed control at 15.625 g/ha: 15.625 g ai/ha; for pest or weed control at 15.625 g/ha / pest or weed control at 250 g/ha: read-out: Velvetleaf damage rating (100=total damage to plant; 0=no damage to plant); for pest or weed control at 62.5 g/ha: 62.5 g ai/ha, 100=total damage to plant, 0=no damage to plant, read-out: Velvetleaf damage rating; for pest or weed control at 250 g/ha: 250 g ai/ha
In short: as §2

[10] = test system: redroot pigweed (Amaranthus retroflexus); experiment: Test G Pre-Emergence Protocol; conditions: Amaranthus retroflexus, pre-emergence, 312 h, evaluated after 13 days; for pest or weed control at 15.625 g/ha: 15.625 g ai/ha; for pest or weed control at 15.625 g/ha / pest or weed control at 250 g/ha: read-out: Pigweed, Redroot damage rating (100=total damage to plant; 0=no damage to plant); for pest or weed control at 62.5 g/ha: 62.5 g ai/ha, 100=total damage to plant, 0=no damage to plant, read-out: Pigweed, Redroot damage rating; for pest or weed control at 250 g/ha: 250 g ai/ha
In short: as §2

[11] = test system: giant foxtail (Setaria faberi); experiment: Test G Pre-Emergence Protocol; conditions: Setaria faberi, pre-emergence, 312 h, evaluated after 13 days; for pest or weed control at 15.625 g/ha: 15.625 g ai/ha; for pest or weed control at 15.625 g/ha / pest or weed control at 250 g/ha: read-out: Foxtail, Giant damage rating (100=total damage to plant; 0=no damage to plant); for pest or weed control at 62.5 g/ha: 62.5 g ai/ha, 100=total damage to plant, 0=no damage to plant, read-out: Foxtail, Giant damage rating; for pest or weed control at 250 g/ha: 250 g ai/ha
In short: as §2

[12] = test system: ivy-leaved morning glory (Ipomoea hederacea); experiment: Test G Pre-Emergence Protocol; conditions: Ipomoea, pre-emergence, 312 h, evaluated after 13 days; for pest or weed control at 15.625 g/ha: 15.625 g ai/ha; for pest or weed control at 15.625 g/ha / pest or weed control at 250 g/ha: read-out: Morningglory, Ivy-leaved damage rating (100=total damage to plant; 0=no damage to plant); for pest or weed control at 62.5 g/ha: 62.5 g ai/ha, 100=total damage to plant, 0=no damage to plant, read-out: Morningglory, Ivy-leaved damage rating; for pest or weed control at 250 g/ha: 250 g ai/ha
In short: as §2

[13] = evaluated after 13 days, 100=total damage to plant, 0=no damage to plant

| Compound | plant injury at 15.625 g/ha [1] | plant injury at 62.5 g/ha [1] | plant injury at 250 g/ha [1] | pest or weed control at 15.625 g/ha [2] | pest or weed control at 62.5 g/ha [2] | pest or weed control at 250 g/ha [2] | pest or weed control at 15.625 g/ha [3] | pest or weed control at 62.5 g/ha [3] | pest or weed control at 250 g/ha [3] | pest or weed control at 15.625 g/ha [4] | pest or weed control at 62.5 g/ha [4] | pest or weed control at 250 g/ha [4] | pest or weed control at 15.625 g/ha [5] | pest or weed control at 62.5 g/ha [5, 13] | pest or weed control at 15.625 g/ha [6] | pest or weed control at 62.5 g/ha [6] | pest or weed control at 250 g/ha [6] | plant injury at 15.625 g/ha [7] | plant injury at 62.5 g/ha [7] | plant injury at 250 g/ha [7] | also measured |
| --- | --- | --- | --- | --- | --- | --- | --- | --- | --- | --- | --- | --- | --- | --- | --- | --- | --- | --- | --- | --- | --- |
| CON1C[C@@H](c2cccc(C(F)(F)F)c2)[C@H](C(=O)Nc2cccc(F)c2F)C1=O (racemic) [Compound 1763] | 20% | 20% | 70% | 40% | 60% | 70% | 0% | 10% | 20% | 0% | 0% | 20% | 60% | 60% | 30% | 40% | 50% | 0% | 50% | 80% | pest or weed control at 250 g/ha ([5]; 250 g ai/ha, evaluated after 13 days, 100=total damage to plant, 0=no damage to plant): 70%; pest or weed control at 15.625 g/ha [8]: 20%; pest or weed control at 62.5 g/ha [8]: 60%; pest or weed control at 250 g/ha [8]: 80%; pest or weed control at 15.625 g/ha [9]: 0%; pest or weed control at 62.5 g/ha [9]: 0%; pest or weed control at 250 g/ha [9]: 0%; pest or weed control at 15.625 g/ha [10]: 0%; pest or weed control at 62.5 g/ha [10]: 0%; pest or weed control at 250 g/ha [10]: 0%; pest or weed control at 15.625 g/ha [11]: 80%; pest or weed control at 62.5 g/ha [11]: 90%; pest or weed control at 250 g/ha [11]: 90%; pest or weed control at 15.625 g/ha [12]: 0%; pest or weed control at 62.5 g/ha [12]: 0%; pest or weed control at 250 g/ha [12]: 20% |
| CN1C[C@H](c2ccc(F)c(F)c2)[C@@H](C(=O)Nc2cnccc2C(F)(F)F)C1=O (racemic) [Compound 1740] | 0% | 0% | 0% | 0% | 0% | 20% | 0% | 0% | 10% | 0% | 0% | 0% | 0% | 40% | 0% | 0% | 20% | 0% | 0% | 10% | pest or weed control at 15.625 g/ha [8]: 0%; pest or weed control at 62.5 g/ha [8]: 30%; pest or weed control at 250 g/ha [8]: 40%; pest or weed control at 15.625 g/ha [9]: 0%; pest or weed control at 62.5 g/ha [9]: 0%; pest or weed control at 250 g/ha [9]: 50%; pest or weed control at 15.625 g/ha [10]: 0%; pest or weed control at 62.5 g/ha [10]: 0%; pest or weed control at 250 g/ha [10]: 40%; pest or weed control at 15.625 g/ha [11]: 0%; pest or weed control at 62.5 g/ha [11]: 60%; pest or weed control at 250 g/ha [11]: 90%; pest or weed control at 15.625 g/ha [12]: 0%; pest or weed control at 62.5 g/ha [12]: 0%; pest or weed control at 250 g/ha [12]: 0% |
